Source: patent US20070196434A1, “Methods of preventing or treating sinusitis with oxidative reductive potential water solution” (priority 2006, published 2007)
Read-outs that look alike come from different tables or passages of the source. Bridge positions count the residues as written; N and C are the ends. Square brackets hold non-standard residues; d marks the D form. Peptide text beside a SMILES is read from it. * marks the point of attachment. Ileψ(thiazoline)Cys = CC[C@H](C)[C@H](N)C1=N[C@H](C(=O)*)CS1; dOrn = NCCC[C@@H](N)C(=O)O

Columns and labels:
[1] = tested on: Pseudomonas aeruginosa, and Staphylococcus aureus; experiment: Bacterial suspension assay, vegetative bacteria; type: cell-based; settings: all time points (20 seconds, 5 minutes, 20 minutes) at 20° C.; Bacitracin 33 Units/ml
[2] = tested on: spore suspension of B. atropheus; experiment: Bacterial suspension assay, spores; type: cell-based; settings: 5, and 20 minute time points at 20° C.; Bacitracin 33 Units/ml
Procedure: Dermacyn is a ready to use product, therefore performing dilutions during testing was not required.
A purchased spore suspension of B. atropheus at 2.5×10^7 /ml was used for testing. In addition fresh suspensions of Pseudomonas aeruginosa, and Staphylococcus aureus were prepared and measured using a spectrophotometer to ensure the titer was acceptable
Nine microliters of test substance was added to 100 ul of microbe suspension. The test mixture was held at 20° C. for the contact times of 20 seconds, 5 minutes, and 20 minutes. 1.0 ml of the test mixture (entire mixture) was added to 9,0 ml of neutralizer for 20 minutes (this is the original neutralization tube or ONT) 1.0 ml of the neutralized test mixture was plated on Tryptic Soy Agar in duplicate for the 5 minute and 20 minute contact times. Additional dilutions and spread plates were used for the 20 second time point, to achieve countable plates.
All plates were incubated at 30° C.-35° C. for a total of 3 days and were evaluated after each day of incubation.

[3] = tested on: human diploid fibroblasts (HDFs); type: cell-based; settings: 880 mM
Procedure: HP is known to be toxic to eukaryotic cells, increasing apoptosis and necrosis and reducing cellular viability. […] HDF cultures were obtained from three different foreskins, which were pooled and cryopreserved together for the purpose of this study. Only diploid cells were used for all experiments. […] Simultaneous analyses of these parameters were performed in the same cell populations by flow cytometry using: […] B) Annexin V-FITC; and C) Propidium iodide. FIG. 4A-4C disclose percentage values expressed as mean±SD (n=3).

[4] = tested on: human diploid fibroblasts (HDFs); settings: 1 month, 5 μM

| cells with SA-β-Gal expression [4] | RNA degradation (human cell cultures) | Compound | log reduction of the vegetative bacteria [1] | log reduction of spores [2] | Cell viability ([3]; 5 min) | apoptosis (Annexin-V) ([3]; 5 min) | necrosis (cells incorporating propidium iodide) ([3]; 5 min) | Cell viability ([3]; 30 min) | apoptosis (Annexin-V) ([3]; 30 min) | necrosis (cells incorporating propidium iodide) ([3]; 30 min) |
| --- | --- | --- | --- | --- | --- | --- | --- | --- | --- | --- |
|  |  | CC[C@H](C)[C@H](N)C1=N[C@H](C(=O)N[C@@H](CC(C)C)C(=O)N[C@H](CCC(=O)O)C(=O)N[C@H](C(=O)N[C@H]2CCCCNC(=O)[C@H](CC(N)=O)NC(=O)[C@@H](CC(=O)O)NC(=O)[C@H](Cc3cnc[nH]3)NC(=O)[C@@H](Cc3ccccc3)NC(=O)[C@H]([C@@H](C)CC)NC(=O)[C@@H](CCCN)NC2=O)[C@@H](C)CC)CS1 [Bacitracin] ({Ileψ(thiazoline)Cys}-L[dE]IK[dOrn]I[dF]H[dD]N; lactam 4-C) | no evidence of lowering the bacterial or spore populations | no evidence of lowering the bacterial or spore populations |  |  |  |  |  |  |
| 86% | significant RNA degradation | OO [HP, hydrogen peroxide] |  |  | 55% | 15% | 20% | 5% | 20% | 75% |
